Measurements: patent publication US10202360B2 (CELGENE QUANTICEL RESEARCH, INC., priority 2016, dated 2019)

These molecules were tested against CREBBP (Homo sapiens (Human), UniProt Q92793) (assay: In vitro enzyme inhibition assay - CREBBP inhibition (AlphaScreen, biotinylated H4-tetraacetyl peptide)). Conditions: Table 28; AlphaScreen, H4-tetraacetyl peptide.
Assay type: binding
Method: Determination of the IC50 for the CREBBP inhibitors disclosed herein was performed as follows: CREBBP was cloned and expressed in E. Coli as His-tag protein and purified by Nickel affinity and gel-filtration chromatography. […] CREBBP binding and inhibition was assessed by monitoring the interaction of biotinylated H4-tetraacetyl peptide (AnaSpec, H4K5/8/12/16(Ac), biotin-labeled) with the target using the AlphaScreen technology (Perkin Elmer). In a 384-well ProxiPlate CREBBP (50 nM final) was combined with peptide (20 nM final) in 50 mM HEPES (pH 7.3), 10 mM NaCl, 0.25 mM TCEP, 0.1% (w/v) BSA, and 0.005% (w/v) Brij-35 either in the presence of DMSO (final 0.4% DMSO) or compound dilution series in DMSO. After 20-minute incubation at room temperature, Alpha streptavidin donor beads and Nickel Chelate acceptor beads were added to a final concentration of 5 μg/mL. After two hours of equilibration, plates were read on an Envision instrument and the IC50 was calculated using a four parameter non-linear curve fit.
The ability of the compounds disclosed herein to inhibit CBP activity was quantified and the respective IC50 value was determined.

CREBBP, sequence (Q92793 1081-1197): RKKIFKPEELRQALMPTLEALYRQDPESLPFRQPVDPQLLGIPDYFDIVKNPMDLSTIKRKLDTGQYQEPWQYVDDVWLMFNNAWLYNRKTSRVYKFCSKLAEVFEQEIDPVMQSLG

| IC50 [nM] | Structure (SMILES) |
| --- | --- |
| < 500 | Cc1cc(-c2cc(NS(=O)(=O)C(C)C)nc(Oc3cc(Cl)ccc3Cl)n2)cn(C)c1=O [Example 1, Propane-2-sulfonic acid [2-(2,5-dichloro-phenoxy)-6-(1,5-dimethyl-6-oxo-1,6-dihydro-pyridin-3-yl)-pyrimidin-4-yl]-amide] |
| < 500 | Cc1ccc(C)c(Oc2nc(NS(=O)(=O)C(C)C)cc(-c3cc(C)c(=O)n(C)c3)n2)c1 [Example 2, Propane-2-sulfonic acid [6-(1,5-dimethyl-6-oxo-1,6-dihydro-pyridin-3-yl)-2-(2,5-dimethyl-phenoxy)-pyrimidin-4-yl]-amide] |
| < 500 | COc1ccc(C)cc1Oc1nc(NS(=O)(=O)C(C)C)cc(-c2cc(C)c(=O)n(C)c2)n1 [Example 4, Propane-2-sulfonic acid [6-(1,5-dimethyl-6-oxo-1,6-dihydro-pyridin-3-yl)-2-(2-methoxy-5-methyl-phenoxy)-pyrimidin-4-yl]-amide] |
| < 500 | Cc1ccc(Cl)c(Oc2nc(NS(=O)(=O)C(C)C)cc(-c3cc(C)c(=O)n(C)c3)n2)c1 [Example 5, Propane-2-sulfonic acid [2-(2-chloro-5-methyl-phenoxy)-6-(1,5-dimethyl-6-oxo-1,6-dihydro-pyridin-3-yl)-pyrimidin-4-yl]-amide] |
| < 500 | Cc1ccc(Cl)cc1Oc1nc(NS(=O)(=O)C(C)C)cc(-c2cc(C)c(=O)n(C)c2)n1 [Example 6, Propane-2-sulfonic acid [2-(5-chloro-2-methyl-phenoxy)-6-(1,5-dimethyl-6-oxo-1,6-dihydro-pyridin-3-yl)-pyrimidin-4-yl]-amide] |
| < 500 | Cc1ccc(C#N)cc1Oc1nc(NS(=O)(=O)C(C)C)cc(-c2cc(C)c(=O)n(C)c2)n1 [Example 7, Propane-2-sulfonic acid [2-(5-cyano-2-methyl-phenoxy)-6-(1,5-dimethyl-6-oxo-1,6-dihydro-pyridin-3-yl)-pyrimidin-4-yl]-amide] |
| < 500 | COc1cccc(C)c1Oc1nc(NS(=O)(=O)C(C)C)cc(-c2cc(C)c(=O)n(C)c2)n1 [Example 8, Propane-2-sulfonic acid [6-(1,5-dimethyl-6-oxo-1,6-dihydro-pyridin-3-yl)-2-(2-methoxy-6-methyl-phenoxy)-pyrimidin-4-yl]-amide] |
| < 500 | COc1ccc(C#N)cc1Oc1nc(NS(=O)(=O)C(C)C)cc(-c2cc(C)c(=O)n(C)c2)n1 [Example 9, Propane-2-sulfonic acid [2-(5-cyano-2-methoxy-phenoxy)-6-(1,5-dimethyl-6-oxo-1,6-dihydro-pyridin-3-yl)-pyrimidin-4-yl]-amide] |
| < 500 | CCCCS(=O)(=O)Nc1cc(-c2cc(C)c(=O)n(C)c2)nc(Oc2cc(C#N)ccc2OC)n1 [Example 10, Butane-1-sulfonic acid [2-(5-cyano-2-methoxy-phenoxy)-6-(1,5-dimethyl-6-oxo-1,6-dihydro-pyridin-3-yl)-pyrimidin-4-yl]-amide] |
| < 500 | CCCCS(=O)(=O)Nc1cc(-c2cc(C)c(=O)n(C)c2)nc(Oc2c(C#N)cccc2OC)n1 [Example 12, Butane-1-sulfonic acid [2-(2-cyano-6-methoxy-phenoxy)-6-(1,5-dimethyl-6-oxo-1,6-dihydro-pyridin-3-yl)-pyrimidin-4-yl]-amide] |
| < 500 | CCCCS(=O)(=O)Nc1cc(-c2cc(C)c(=O)n(C)c2)nc(Oc2cc(Cl)ccc2Cl)n1 [Example 13, Butane-1-sulfonic acid [2-(2,5-dichloro-phenoxy)-6-(1,5-dimethyl-6-oxo-1,6-dihydro-pyridin-3-yl)-pyrimidin-4-yl]-amide] |
| < 500 | CCCCS(=O)(=O)Nc1cc(-c2cc(C)c(=O)n(C)c2)nc(Oc2cc(C)ccc2Cl)n1 [Example 15, Butane-1-sulfonic acid [2-(2-chloro-5-methyl-phenoxy)-6-(1,5-dimethyl-6-oxo-1,6-dihydro-pyridin-3-yl)-pyrimidin-4-yl]-amide] |
| < 500 | CCCCS(=O)(=O)Nc1cc(-c2cc(C)c(=O)n(C)c2)nc(Oc2ccccc2Cl)n1 [Example 16, Butane-1-sulfonic acid [2-(2-chloro-phenoxy)-6-(1,5-dimethyl-6-oxo-1,6-dihydro-pyridin-3-yl)-pyrimidin-4-yl]-amide] |
| < 500 | Cc1cc(-c2cc(NS(=O)(=O)C(C)C)nc(Oc3c(F)cccc3F)n2)cn(C)c1=O [Example 17, Propane-2-sulfonic acid [2-(2,6-difluoro-phenoxy)-6-(1,5-dimethyl-6-oxo-1,6-dihydro-pyridin-3-yl)-pyrimidin-4-yl]-amide] |
| < 500 | CCCCS(=O)(=O)Nc1cc(-c2cc(C)c(=O)n(C)c2)nc(Oc2c(F)cccc2F)n1 [Example 18, Butane-1-sulfonic acid [2-(2,6-difluoro-phenoxy)-6-(1,5-dimethyl-6-oxo-1,6-dihydro-pyridin-3-yl)-pyrimidin-4-yl]-amide] |
| < 500 | CCCCS(=O)(=O)Nc1cc(-c2cc(C)c(=O)n(C)c2)nc(Oc2c(C)cccc2F)n1 [Example 19, Butane-1-sulfonic acid [6-(1,5-dimethyl-6-oxo-1,6-dihydro-pyridin-3-yl)-2-(2-fluoro-6-methyl-phenoxy)-pyrimidin-4-yl]-amide] |
| < 500 | CCCS(=O)(=O)Nc1cc(-c2cc(C)c(=O)n(C)c2)nc(Oc2c(F)cccc2F)n1 [Example 20, Propane-1-sulfonic acid [2-(2,6-difluoro-phenoxy)-6-(1,5-dimethyl-6-oxo-1,6-dihydro-pyridin-3-yl)-pyrimidin-4-yl]-amide] |
| < 500 | CCCS(=O)(=O)Nc1cc(-c2cc(C)c(=O)n(C)c2)nc(Oc2c(C)cccc2F)n1 [Example 21, Propane-1-sulfonic acid [6-(1,5-dimethyl-6-oxo-1,6-dihydro-pyridin-3-yl)-2-(2-fluoro-6-methyl-phenoxy)-pyrimidin-4-yl]-amide] |
| < 500 | CCCCS(=O)(=O)Nc1cc(-c2cc(C)c(=O)n(C)c2)nc(Oc2c(C)cccc2C#N)n1 [Example 22, Butane-1-sulfonic acid [2-(2-cyano-6-methyl-phenoxy)-6-(1,5-dimethyl-6-oxo-1,6-dihydro-pyridin-3-yl)-pyrimidin-4-yl]-amide] |
| < 500 | CCCS(=O)(=O)Nc1cc(-c2cc(C)c(=O)n(C)c2)nc(Oc2c(C)cccc2C#N)n1 [Example 23, Propane-1-sulfonic acid [2-(2-cyano-6-methyl-phenoxy)-6-(1,5-dimethyl-6-oxo-1,6-dihydro-pyridin-3-yl)-pyrimidin-4-yl]-amide] |
| < 500 | Cc1cccc(C#N)c1Oc1nc(NS(=O)(=O)C(C)C)cc(-c2cc(C)c(=O)n(C)c2)n1 [Example 24, Propane-2-sulfonic acid [2-(2-cyano-6-methyl-phenoxy)-6-(1,5-dimethyl-6-oxo-1,6-dihydro-pyridin-3-yl)-pyrimidin-4-yl]-amide] |
| < 500 | Cc1cc(Cl)cc(Cl)c1Oc1nc(NS(C)(=O)=O)cc(-c2cc(C)c(=O)n(C)c2)n1 [Example 25, N-[2-(2,4-Dichloro-6-methyl-phenoxy)-6-(1,5-dimethyl-6-oxo-1,6-dihydro-pyridin-3-yl)-pyrimidin-4-yl]-methanesulfonamide] |
| < 500 | CCS(=O)(=O)Nc1cc(-c2cc(C)c(=O)n(C)c2)nc(Oc2c(C)cc(Cl)cc2Cl)n1 [Example 26, Ethanesulfonic acid [2-(2,4-dichloro-6-methyl-phenoxy)-6-(1,5-dimethyl-6-oxo-1,6-dihydro-pyridin-3-yl)-pyrimidin-4-yl]-amide] |
| < 500 | CCCS(=O)(=O)Nc1cc(-c2cc(C)c(=O)n(C)c2)nc(Oc2c(C)cc(Cl)cc2Cl)n1 [Example 27, Propane-1-sulfonic acid [2-(2,4-dichloro-6-methyl-phenoxy)-6-(1,5-dimethyl-6-oxo-1,6-dihydro-pyridin-3-yl)-pyrimidin-4-yl]-amide] |
| < 500 | CCCCS(=O)(=O)Nc1cc(-c2cc(C)c(=O)n(C)c2)nc(Oc2c(C)cc(Cl)cc2Cl)n1 [Example 28, Butane-1-sulfonic acid [2-(2,4-dichloro-6-methyl-phenoxy)-6-(1,5-dimethyl-6-oxo-1,6-dihydro-pyridin-3-yl)-pyrimidin-4-yl]-amide] |
| < 500 | Cc1cc(Cl)cc(Cl)c1Oc1nc(NS(C)(=O)=O)cc(-c2ccc(=O)n(C)c2)n1 [Example 29, N-[2-(2,4-Dichloro-6-methyl-phenoxy)-6-(1-methyl-6-oxo-1,6-dihydro-pyridin-3-yl)-pyrimidin-4-yl]-methanesulfonamide] |
| < 500 | CCS(=O)(=O)Nc1cc(-c2ccc(=O)n(C)c2)nc(Oc2c(C)cc(Cl)cc2Cl)n1 [Example 30, Ethanesulfonic acid [2-(2,4-dichloro-6-methyl-phenoxy)-6-(1-methyl-6-oxo-1,6-dihydro-pyridin-3-yl)-pyrimidin-4-yl]-amide] |
| < 500 | CCCS(=O)(=O)Nc1cc(-c2ccc(=O)n(C)c2)nc(Oc2c(C)cc(Cl)cc2Cl)n1 [Example 31, Propane-1-sulfonic acid [2-(2,4-dichloro-6-methyl-phenoxy)-6-(1-methyl-6-oxo-1,6-dihydro-pyridin-3-yl)-pyrimidin-4-yl]-amide] |
| < 500 | CCCCS(=O)(=O)Nc1cc(-c2ccc(=O)n(C)c2)nc(Oc2c(C)cc(Cl)cc2Cl)n1 [Example 32, Butane-1-sulfonic acid [2-(2,4-dichloro-6-methyl-phenoxy)-6-(1-methyl-6-oxo-1,6-dihydro-pyridin-3-yl)-pyrimidin-4-yl]-amide] |
